This is an account of results in patent US20260364184A1, “COMPOUND BASED ON OXOISOINDOLINYL-SUBSTITUTED TETRAHYDROPYRIMIDINE-DIONE AND USE THEREOF” (GLUETACS THERAPEUTICS (SHANGHAI) CO., LTD., priority 2023, published 2026).

In experiment [1] the target is T1, human Cereblon WT GST-tagged protein (CRBN) (Homo sapiens, UniProt Q96SW2).
T1 construct: purchased CISBIO 64BDCRBNPEH
The experiment can be described thus: CRBN binding by HTRF (Cereblon binding kit). To be noted: for inhibition at 0.5 µM: read-out: Inhibition Rate at 0.5 μM (%); for inhibition at 2 µM: read-out: Inhibition Rate at 2 μM (%). How it is done: The CEREBLON BINDING kits (specification: 10,000 tests; product number: Catalog #64BDCRBNPEH; CISBIO company) was used to determine the CRBN binding ability of the compounds to be tested through a HTRF method (homogeneous time-resolved fluorescence). The specific methods are as follows: • 1. According to the instructions of the CEREBLON BINDING KITS, serial dilutions were performed for the test compounds of the present disclosure (including the compounds in Table 1, Table 2, and Examples 1-468) and for lenalidomide. Specifically, diluent #9 (1×) solution was used as the diluent, and multiple concentration gradients were set. The dilution operation can be performed according to one of the following two methods: • (1) The first dilution method: The test compounds of the present disclosure (including the compounds in Table 1, Table 2, and Examples 1-468) were subjected to 5-fold serial dilutions starting from a highest concentration of 40 μM, resulting in a total of 7 concentrations from high to low (40, 8, 1.6, 0.32, 0.064, 0.0128, 0.00256 μM). Subsequently, the diluted test compounds and corresponding detection reagents were added to each well of a 96-well plate, resulting in final test compound concentrations of 10, 2, 0.4, 0.08, 0.016, 0.0032, and 0.00064 μM, respectively. • (2) As an alternative, a second dilution method can be used: The test compounds of the present disclosure (including the compounds in Table 1, Table 2, and Examples 1-468) were subjected to 4-fold gradient dilutions starting from a highest concentration of 8 μM, resulting in 2 concentrations (8 μM, 2 μM). Into the 96-well plate, the diluted test compounds and corresponding detection reagents were added, resulting in final test compound concentrations of 2 μM and 0.5 μM, respectively. The experimental procedure is described below using the diluted 8 μM test compound and lenalidomide solutions as examples. • 2. 2.5 μL of the above 8 μM of the tested compounds and lenalidomide solution, as well as the same volume of diluent #9 (1×) solution (solvent control group, Std0) were added to each well of a 96-well plate, respectively. Then, 2.5 μL of human Cereblon WT GST-tagged protein solution was added to each well. Finally, 5 μL of the thoroughly mixed Thalidomide-Re reagent and GST Eu antibody working solution were added to each of the aforementioned wells. The final concentration of the tested compounds and lenalidomide in each well was 2 μM. • 3. The blank control wells were sequentially added with 2.5 μL of diluent #9 (1×) solution, 2.5 μL of PROTAC binding buffer, and 5 μL of thoroughly mixed Thalidomide-Re reagent and GST Eu antibody working solution. • 4. After sealing and incubating the solutions in the aforementioned wells at room temperature for 3 hours, the absorbance values at emission wavelengths of 620 nm and 665 nm were detected by the HTRF method using a Spark microplate reader (V3.1 SP1).
The corresponding CRBN binding inhibition rate was calculated using the following method:
Rcompound=OD 665 nmcompound/OD 620 nmcompound−OD 665 nmcontrol/OD 620 nmcontrol
RStd0=OD 665 nmStd0/OD 620 nmStd0−OD 665 nmcontrol/OD 620 nmcontrol inhibition rate (%)=(1−Rcompound/RStd0)*100
Note: OD 665 nmcompound is the absorbance value of each well of the compounds to be tested of the present disclosure at an emission wavelength of 665 nm. OD 620 nmcompound is the absorbance value of each well of the compounds to be tested of the present disclosure at an emission wavelength of 620 nm. OD 665 nmcontrol is the absorbance value of the blank control well at an emission wavelength of 665 nm. OD 620 nmcontrol is the absorbance value of the blank control well at an emission wavelength of 620 nm. OD 665 nmStd0 is the absorbance value of the solvent control well at an emission wavelength of 665 nm. OD 620 nmStd0 is the absorbance value of the solvent control well at an emission wavelength of 620 nm.

Experiment [2] has as its system Human Acute T Lymphoblastic Leukemia Cells (Molt-4). Kind of experiment: Inhibition of Molt-4 cell proliferation (CellTiter luminescent viability). Type of experiment: cell-based. To be noted: Homo sapiens, MOLT-4, 96 h, Table IA2, IRAK4 inhibitor-based, 96 hours; for inhibition at 0.01 µM: Molt-4, 10 nM, read-out: Inhibition Rate at 10 nM (%); for inhibition at 0.5 µM: Molt-4, 500 nM, read-out: Inhibition Rate at 500 nM (%). How it is done: The tumor cells used herein were cultured in a cell culture medium listed in table 3 at 37 °C in an incubator with 5% CO2. Prior to experimentation, all cell lines used were correctly identified by STR profiling, and tested negative for mycoplasma contamination using a mycoplasma detection kit through routine screenings.
The IC50 values of the compounds of the present disclosure (including the compounds in Table 1, Table 2, and Examples 1-468) were determined using the CellTiter-Meiluncell Luminescent Cell Viability Assay Kit from Dalian Meilun Biotech Co., Ltd. The detailed procedure is as follows: Tumor cells were seeded in 96-well cell culture plates at the densities specified in Table 4. On the following day, the test compounds of the present disclosure were subjected to serial dilution. The dilution can be performed according to one of the following two methods: • (1) The first dilution method: The test compounds of the present disclosure (including the compounds in Table 1, Table 2, and Examples 1-468) were subjected to 5-fold serial dilutions starting from a highest concentration of 2000 μM, resulting in a total of 9 concentrations from high to low (2000, 400, 80, 16, 3.2, 0.64, 0.128, 0.0256, 0.00512 μM). Subsequently, 0.5 μL of the test compound dilution was transferred into the 96-well plate containing the cells, with each well containing 100 μL of cell culture medium. […] Into the 96-well plate, the diluted test compounds and corresponding detection reagents were added, resulting in final test compound concentrations of 500 nM and 10 nM, respectively. The experimental procedure is described below using the diluted 2 μM test compound as an example.
0.5 μL of the aforementioned diluted compound of the present disclosure (including the compounds in Table 1, Table 2, and Examples 1-468) was added to the seeded cells in 100 μL of medium, yielding a final test compound concentration of 10 nM. After the cells were treated with the compounds of the present disclosure for a specified period, the cell viability assay reagent was added to the culture medium according to the kit's instructions to determine cell viability. […] All controls were treated using the same procedure as the compounds of the present disclosure. The growth inhibition curves for the compounds of the present disclosure were plotted using Prism GraphPad software, and the IC50 values were calculated therefrom.

The target of a further experiment is T2, IRAK4 (Homo sapiens, UniProt Q9NWZ3).
T2 construct: expression of target proteins in cells; endogenous in cells
T2 sequence (Q9NWZ3 1-460): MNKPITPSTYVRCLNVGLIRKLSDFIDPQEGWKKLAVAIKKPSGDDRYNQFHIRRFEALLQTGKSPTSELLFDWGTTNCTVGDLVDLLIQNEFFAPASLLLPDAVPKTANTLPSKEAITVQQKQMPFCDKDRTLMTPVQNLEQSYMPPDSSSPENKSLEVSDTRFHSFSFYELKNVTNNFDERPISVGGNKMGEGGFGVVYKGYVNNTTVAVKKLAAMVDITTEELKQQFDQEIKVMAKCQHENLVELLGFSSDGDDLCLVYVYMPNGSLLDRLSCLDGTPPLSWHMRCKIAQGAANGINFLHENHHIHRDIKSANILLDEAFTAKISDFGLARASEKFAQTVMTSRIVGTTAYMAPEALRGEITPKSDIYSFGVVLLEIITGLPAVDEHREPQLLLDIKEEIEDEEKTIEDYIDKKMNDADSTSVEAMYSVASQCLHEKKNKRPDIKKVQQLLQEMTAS
Kind of experiment: Western blot degradation of IRAK4. To be noted: hPBMC Cell; 24 hours. It counts as cell-based. A digest of the protocol: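 Immunoblot of drug-treated versus DMSO-treated cell lysates, with densitometric quantification. Values: DC50 (50% band loss, fitted) and loading-control-normalised % remaining or degradation.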

T1 sequence (Q96SW2 whole entry): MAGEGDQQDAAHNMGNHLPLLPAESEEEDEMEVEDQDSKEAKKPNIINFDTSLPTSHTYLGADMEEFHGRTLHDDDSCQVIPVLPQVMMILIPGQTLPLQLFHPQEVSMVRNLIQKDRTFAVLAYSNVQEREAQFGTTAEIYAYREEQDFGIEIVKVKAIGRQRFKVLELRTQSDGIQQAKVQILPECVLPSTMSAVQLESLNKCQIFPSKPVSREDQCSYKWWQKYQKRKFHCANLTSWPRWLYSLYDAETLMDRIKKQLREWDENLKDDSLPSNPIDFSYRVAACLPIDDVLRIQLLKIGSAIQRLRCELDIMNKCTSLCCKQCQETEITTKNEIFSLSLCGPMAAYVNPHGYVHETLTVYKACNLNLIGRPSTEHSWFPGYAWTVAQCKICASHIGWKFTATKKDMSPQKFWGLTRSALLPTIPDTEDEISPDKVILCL

One may read the inhibition as the share of the control response that was lost under treatment. `CN(Cc1ccc(-c2[nH]c3cc(F)cc4c3c2CCNC4=O)cc1)Cc1ccc2c(c1)CN(N1CCC(=O)NC1=O)C2=O` [GT-08403, 1-(5-(((4-(8-fluoro-1-oxo-2,3,4,6-tetrahydro-1H-azepino[5,4,3-cd]indol-5-yl)benzyl)(methyl)amino)methyl)-1-oxoisoindolin-2-yl)dihydropyrimidine-2,4(1H,3H)-dione]: the inhibition at 0.5 µM in experiment [1] (0.5 μM) is 20 to 30%. Moreover, the inhibition at 2 µM in experiment [1] (2 μM) was in the range of 53 to 60%.
For `Cn1c2ccncc2c2ccc(-c3cnc(N4CCN(Cc5ccc6c(c5)CN(N5CCC(=O)NC5=O)C6=O)CC4)c(Cl)c3)cc21` [GT-08541, 1-(5-((4-(3-chloro-5-(5-methyl-5H-pyrido[4,3-b]indol-7-yl)pyridin-2-yl)piperazin-1-yl)methyl)-1-oxoisoindolin-2-yl)dihydropyrimidine-2,4 (1H,3H)-dione] the same measures were 30 to 40% and 60 to 80%.
Consider `CN(C)C(=O)c1cc2cnc(Nc3ccc(N4CCC(CN5CC6CC(C5)N6c5ccc6c(c5)C(=O)N(N5CCC(=O)NC5=O)C6=O)CC4)cn3)nc2n1C1CCCC1` [GT-05201, 7-cyclopentyl-2-((5-(4-((6-(2-(2,4-dioxotetrahydropyrimidin-1(2H)-yl)-1,3-dioxoisoindolin-5-yl)-3,6-diazabicyclo[3.1.1]heptan-3-yl)methyl)piperidin-1-yl)pyridin-2-yl)amino)-N,N-dimethyl-7H-pyrrolo[2,3-d]pyrimidine-6-carboxamide], for which the “Inhibition Rate at 0.5 μM (%)” value in experiment [1] (0.5 μM) was “a3 (30% < a3 ≤ 40%)”. The “Inhibition Rate at 2 μM (%)” value in experiment [1] (2 μM) is given as “a5 (53% < a5 ≤ 60%)”.
`COc1cc2nn([C@H]3CC[C@H](CN4CCN(c5cc6c(cc5F)C(=O)N(N5CCC(=O)NC5=O)C6=O)CC4)CC3)cc2cc1NC(=O)c1cccc(C(F)(F)F)c1` [GT-08664, N-(2-((1r,4r)-4-((4-(2-(2,4-dioxotetrahydropyrimidin-1(2H)-yl)-6-fluoro-1,3-dioxoisoindolin-5-yl)piperazin-1-yl)methyl)cyclohexyl)-6-methoxy-2H-indazol-5-yl)-3-(trifluoromethyl)benzamide]: in experiment [2], the inhibition at 0.01 µM lay within 20 to 40% and the inhibition at 0.5 µM was 15 to 20%. The “Degradation of substrate protein IRAK4 (substrate protein remaining %)” value on IRAK4 was “A (0%≤substrate protein remaining %≤80%)”.
For `COc1cc2nn([C@H]3CC[C@H](CN4C[C@@H]5C[C@H]4CN5c4ccc5c(c4)C(=O)N(N4CCC(=O)NC4=O)C5=O)CC3)cc2cc1NC(=O)c1cccc(C(F)(F)F)n1` [GT-08648, N-(2-((1S,4r)-4-(((1S,4S)-5-(2-(2,4-dioxotetrahydropyrimidin-1(2H)-yl)-1,3-dioxoisoindolin-5-yl)-2,5-diazabicyclo[2.2.1]heptan-2-yl)methyl)cyclohexyl)-6-methoxy-2H-indazol-5-yl)-6-(trifluoromethyl) picolinamide] the same measures were 15 to 20%, 15 to 20% and “A (0%≤substrate protein remaining %≤80%)”.
The corresponding values for `COc1cc2nn([C@H]3CC[C@H](CN4C[C@H]5C[C@@H]4CN5c4ccc5c(c4)C(=O)N(N4CCC(=O)NC4=O)C5=O)CC3)cc2cc1NC(=O)c1cccc(C(F)(F)F)n1` [GT-08650, N-(2-((1R,4r)-4-(((1R,4R)-5-(2-(2,4-dioxotetrahydropyrimidin-1(2H)-yl)-1,3-dioxoisoindolin-5-yl)-2,5-diazabicyclo[2.2.1]heptan-2-yl)methyl)cyclohexyl)-6-methoxy-2H-indazol-5-yl)-6-(trifluoromethyl) picolinamide] are 20 to 40%, 15 to 20% and “A (0%≤substrate protein remaining %≤80%)”.
For `COc1cc2nn([C@H]3CC[C@H](CN4CCN(c5cc6c(cc5F)C(=O)N(N5CCC(=O)NC5=O)C6=O)CC4)CC3)cc2cc1NC(=O)c1cccc(C(F)(F)F)n1` [GT-08651, N-(2-((1r,4r)-4-((4-(2-(2,4-dioxotetrahydropyrimidin-1(2H)-yl)-6-fluoro-1,3-dioxoisoindolin-5-yl)piperazin-1-yl)methyl)cyclohexyl)-6-methoxy-2H-indazol-5-yl)-6-(trifluoromethyl) picolinamide] the same measures were 15 to 20%, 10 to 15% and “A (0%≤substrate protein remaining %≤80%)”.
